Values of other authors in patent publication US20250017941A1, “METHODS OF TREATING NON-HODGKIN LYMPHOMA USING 2-(2,6-DIOXOPIPERIDIN-3-YL)-4-((2-FLUORO-4-((3-MORPHOLINOAZETIDIN-1-YL)METHYL)BENZYL)AMINO)ISOINDOLINE-1,3-DIONE” (Celgene Corporation, priority 2021, published 2025).
Like-named read-outs stand apart in the source and are kept apart here. Each block holds one molecule with its values, some of them ahead of it.

How the values were obtained:
[1] = system: patients with FL who had received 2 or more prior systemic therapies
[2] = system: adult patients with CD20-positive indolent non-Hodgkin lymphoma refractory to rituximab
[3] = 53 patients with EZH2 wild-type status, 800 mg orally twice daily
[4] = tafasitamab in combination with lenalidomide, R/R DLBCL
[5] = tafasitamab in combination with lenalidomide, listed with the G3/4 events

Grade 3/4 anemia, patients ([1]; 800 mg orally twice daily): 8%
Grade 3/4 neutropenia, patients ([1]; 800 mg orally twice daily): 7%
Grade 3/4 thrombocytopenia, patients ([1]; 800 mg orally twice daily): 7%
Molecule: CCN(c1cc(-c2ccc(CN3CCOCC3)cc2)cc(C(=O)NCc2c(C)cc(C)[nH]c2=O)c1C)C1CCOCC1 [Tazemetostat, N-[(1,2-dihydro-4,6-dimethyl-2-oxo-3-pyridinyl)methyl]-5-[ethyl (tetrahydro-2H-pyran-4-yl)amino]-4-methyl-4′-(4-morpholinylmethyl)-[1,1′-biphenyl]-3-carboxamide]
Serious AEs, patients ([1]; 800 mg orally twice daily): 30%
CR rate ([1]; 42 patients with EZH2 mutated status, 800 mg orally twice daily): 12%
ORR ([1]; 42 patients with EZH2 mutated status, tazemetostat 800 mg orally twice daily): 69%
CR rate [1, 3]: 4%
ORR [1, 3]: 34%
mDOR ([1]; EZH2 wild-type cohort, 800 mg orally twice daily): 13 months
most common AEs of all grades, frequency ([1]; fatigue, upper respiratory tract infection, nausea, abdominal pain and musculoskeletal pain): ≥ 20%
most common serious AEs, patients ([1]; general physical health deterioration, abdominal pain, pneumonia, sepsis and anemia): at least 2%
mDOR ([1]; patients with EZH2 mutated status, 800 mg orally twice daily): 10.9 months

Molecule: Cn1c(CCCC(=O)O)nc2cc(N(CCCl)CCCl)ccc21 [bendamustine]
PFS (primary endpoint) ([2]; median follow-up 21.9 months (obinutuzumab plus bendamustine) and 20.3 months (bendamustine monotherapy)): 14.9 months
Febrile neutropenia, occurrence ([2]; per arm): uncommon
Grade 3/4 anemia, patients ([2]; per arm): 8%
Grade 3/4 neutropenia, patients ([2]; per arm): 26%
Grade 3/4 thrombocytopenia, patients ([2]; per arm): 15%
Serious AEs, patients ([2]; per treatment group): 33%
deaths due to adverse events, patients ([2]; per treatment group): 6%

Molecule: tafasitamab: anti-CD19 monoclonal antibody; results are for the combination with lenalidomide
objective response rate (ORR) (patients with R/R DLBCL; tafasitamab 12 mg/kg intravenously in combination with lenalidomide 25 mg orally, R/R DLBCL, 81 participants): 60%
complete response (CR) rate (patients with R/R DLBCL; tafasitamab 12 mg/kg intravenously in combination with lenalidomide, R/R DLBCL, 81 participants): 34%
G3/4 febrile neutropenia, patients (patients with R/R DLBCL; [4]): 12%
G3/4 neutropenia, patients (patients with R/R DLBCL; [4]): 48%
Serious AEs, patients (patients with R/R DLBCL; [4]): 52%
Serious AEs: febrile neutropenia, patients (patients with R/R DLBCL; [4]): 6%
Serious AEs: pneumonia, patients (patients with R/R DLBCL; [4]): 6%
median duration of response (patients with R/R DLBCL; [4]): 21.7 months
anemia, patients (patients with R/R DLBCL; [5]): 7%
thrombocytopenia, patients (patients with R/R DLBCL; [5]): 17%
most common adverse events (AEs) of all grades, frequency (patients with R/R DLBCL; tafasitamab in combination with lenalidomide, neutropenia, fatigue, anemia, diarrhea, thrombocytopenia, cough, pyrexia, peripheral edema, rash, decreased appetite): ≥ 20%
